Measured values as given in ChEMBL document CHEMBL1201862, “PubChem BioAssay data set” (2004).
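The compound was tested at five concentrations on cells cultured in 96-well plates, with a 48-hour exposure period. The concentration for 50% growth inhibition is given as GI50.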 Calls of active or inactive are those of the source. Rule as the data show it: active = GI50 up to about 1.1 µM and inactive = higher.

Key:
Assay in all cases: NCI anticancer screen, dose series, 48 h
[1] = system: 786-0
[2] = system: A498
[3] = system: A549
[4] = system: ACHN
[5] = system: BT-549
[6] = system: CCRF-CEM
[7] = system: COLO 205
[8] = system: DU-145
[9] = system: EKVX
[10] = system: HCC 2998
[11] = system: HCT-116
[12] = system: HCT-15
[13] = system: HL-60
[14] = system: HOP-62
[15] = system: HOP-92
[16] = system: HT-29
[17] = system: Hs-578T
[18] = system: IGROV-1
[19] = system: K562
[20] = system: KM12
[21] = system: LOX IMVI
[22] = system: M14
[23] = system: MCF7
[24] = system: MDA-MB-231
[25] = system: MDA-MB-435
[26] = system: MDA-N
[27] = system: MOLT-4
[28] = system: Malme-3M
[29] = system: NCI-H226
[30] = system: NCI-H23
[31] = system: NCI-H460
[32] = system: NCI/ADR-RES
[33] = system: OVCAR-3
[34] = system: OVCAR-4
[35] = system: OVCAR-5
[36] = system: OVCAR-8
[37] = system: PC-3
[38] = system: RPMI-8226
[39] = system: RXF 393
[40] = system: SF-268
[41] = system: SF-295
[42] = system: SF-539
[43] = system: SK-MEL-28
[44] = system: SK-MEL-2
[45] = system: SK-MEL-5
[46] = system: SK-OV-3
[47] = system: SN12C
[48] = system: SNB-19
[49] = system: SNB-75
[50] = system: SR
[51] = system: SW-620
[52] = system: T47D
[53] = system: TK-10
[54] = system: U-251
[55] = system: UACC-257
[56] = system: UACC-62
[57] = system: UO-31
[58] = system: CAKI-1

CNC(=O)OCC1=C(COC(=O)NC)CN(c2ccc(OC)cc2)C1
GI50 [1]: > 100 µM (inactive) | GI50 [2]: 1.9 µM (inactive) | GI50 [3]: > 100 µM (inactive) | GI50 [4]: > 100 µM (inactive) | GI50 [5]: > 100 µM (inactive) | GI50 [6]: > 100 µM (inactive) | GI50 [7]: > 100 µM (inactive) | GI50 [8]: > 100 µM (inactive) | GI50 [9]: > 100 µM (inactive) | GI50 [10]: > 100 µM (inactive) | GI50 [11]: > 100 µM (inactive) | GI50 [12]: > 100 µM | GI50 [13]: > 100 µM (inactive) | GI50 [14]: > 100 µM (inactive) | GI50 [15]: > 100 µM (inactive) | GI50 [16]: > 100 µM (inactive) | GI50 [17]: > 100 µM (inactive) | GI50 [18]: > 100 µM (inactive) | GI50 [19]: > 100 µM (inactive) | GI50 [20]: > 100 µM (inactive) | GI50 [21]: > 100 µM (inactive) | GI50 [22]: > 100 µM (inactive) | GI50 [23]: > 100 µM (inactive) | GI50 [24]: > 100 µM (inactive) | GI50 [25]: > 100 µM (inactive) | GI50 [26]: > 100 µM (inactive) | GI50 [27]: > 100 µM (inactive) | GI50 [28]: > 100 µM (inactive) | GI50 [29]: 4.2 µM (inactive) | GI50 [30]: > 100 µM (inactive) | GI50 [31]: > 100 µM (inactive) | GI50 [32]: > 100 µM (inactive) | GI50 [33]: > 100 µM (inactive) | GI50 [34]: > 100 µM (inactive) | GI50 [35]: > 100 µM (inactive) | GI50 [36]: > 100 µM (inactive) | GI50 [37]: > 100 µM (inactive) | GI50 [38]: > 100 µM (inactive) | GI50 [39]: > 100 µM (inactive) | GI50 [40]: > 100 µM (inactive) | GI50 [41]: > 100 µM (inactive) | GI50 [42]: > 100 µM (inactive) | GI50 [43]: > 100 µM (inactive) | GI50 [44]: > 100 µM (inactive) | GI50 [45]: > 100 µM (inactive) | GI50 [46]: > 100 µM (inactive) | GI50 [47]: > 100 µM (inactive) | GI50 [48]: > 100 µM (inactive) | GI50 [49]: > 100 µM (inactive) | GI50 [50]: > 100 µM (inactive) | GI50 [51]: > 100 µM (inactive) | GI50 [52]: > 100 µM (inactive) | GI50 [53]: 85.7 µM (inactive) | GI50 [54]: > 100 µM (inactive) | GI50 [55]: > 100 µM (inactive) | GI50 [56]: > 100 µM (inactive) | GI50 [57]: 80.9 µM (inactive)

COc1ccc(C(=O)C2CC3(CCC2(O)c2ccc(OC)cc2)CC(=O)Nc2ccccc2C3=O)cc1 (stereo not drawn)
GI50 [2]: > 100 µM (inactive) | GI50 [3]: > 100 µM (inactive) | GI50 [5]: > 100 µM (inactive) | GI50 [58]: > 100 µM (inactive) | GI50 [6]: 4.38 µM (inactive) | GI50 [7]: 11.7 µM (inactive) | GI50 [8]: > 100 µM (inactive) | GI50 [9]: > 100 µM (inactive) | GI50 [10]: 79.3 µM (inactive) | GI50 [11]: 28.4 µM (inactive) | GI50 [12]: 5.85 µM | GI50 [13]: 5.08 µM (inactive) | GI50 [14]: > 100 µM (inactive) | GI50 [15]: 0.5 µM (active) | GI50 [16]: > 100 µM (inactive) | GI50 [17]: > 100 µM (inactive) | GI50 [18]: > 100 µM (inactive) | GI50 [19]: > 100 µM (inactive) | GI50 [21]: > 100 µM (inactive) | GI50 [22]: > 100 µM (inactive) | GI50 [23]: 3.03 µM (inactive) | GI50 [24]: > 100 µM (inactive) | GI50 [25]: > 100 µM (inactive) | GI50 [26]: > 100 µM (inactive) | GI50 [28]: > 100 µM (inactive) | GI50 [29]: > 100 µM (inactive) | GI50 [30]: > 100 µM (inactive) | GI50 [31]: 6.75 µM (inactive) | GI50 [32]: > 100 µM (inactive) | GI50 [33]: > 100 µM (inactive) | GI50 [34]: 1.55 µM (inactive) | GI50 [35]: > 100 µM (inactive) | GI50 [36]: > 100 µM (inactive) | GI50 [37]: 1.44 µM (inactive) | GI50 [39]: > 100 µM (inactive) | GI50 [40]: > 100 µM (inactive) | GI50 [41]: > 100 µM (inactive) | GI50 [42]: > 100 µM (inactive) | GI50 [44]: > 100 µM (inactive) | GI50 [45]: 4.98 µM (inactive) | GI50 [46]: > 100 µM (inactive) | GI50 [47]: > 100 µM (inactive) | GI50 [49]: 4.4 µM (inactive) | GI50 [50]: > 100 µM (inactive) | GI50 [51]: > 100 µM (inactive) | GI50 [52]: 0.366 µM (active) | GI50 [53]: > 100 µM (inactive) | GI50 [54]: 63.7 µM (inactive) | GI50 [55]: > 100 µM (inactive) | GI50 [56]: > 100 µM (inactive) | GI50 [57]: 18.1 µM (inactive)
